The test system of this experiment is male db/db mice. Nature of the experiment: Blood glucose, triglyceride and non-esterified fatty acid reduction in db/db mice. It is filed as in vivo. The following applies: Mus musculus, 216 h, oral once a day, day 9 after administration. On the procedure: A chemical suspended in 0.5% methyl cellulose was orally administered via a sonde into male db/db mice (Nippon Charles River, Yokohama, JP) once a day (0.3 to 30 mg/kg/day). Before treatment and after 4 and 9 days treatment, blood was collected through a tail vein after the mice were fasted for 1 hour, respectively. On Day 10, an oral glucose loading test was conducted; in this test, the mice were fasted overnight from the previous day, and in the next morning, 2 g/kg glucose was given to the mice. Plasma glucose, triglycerides (TG), non-esterified fatty acid (NEFA) were measured by using commercial kits, that is, Glucose C-II Test Wako (trade name) (Wako Pure Chemical Industries, Ltd., Tokyo), Determiner L TG II (trade name) (Kyowa Medex, Tokyo) and NEFA C-Test Wako (Wako Pure Chemical Industries, Ltd., Tokyo), respectively.
The determined blood glucose reduction, blood triglyceride reduction and blood non-esterified fatty acid reduction at day 9 after administration are shown in Table 1.

Setting [1] is: read-out: Blood free fatty acid reduction (%).
Where [2] appears, read: read-out: Blood sugar reduction (%).
Where [3] appears, read: read-out: Blood triglyceride reduction (%).

Structures are written as SMILES. Read-outs that look alike come from different tables or passages of the source.

`CC(C)OC(Cc1cccc(OCC#Cc2ccc(Cl)cc2Cl)c1)C(=O)O` (stereo not drawn) [Ex 100, 2-Isopropoxy-3-(3-[3-(2,4-dichlorophenyl)-2-propynyl]oxyphenyl)propanoic acid]: the inhibition in vivo at 6 mg/kg was found to be 60.7% under setting [1], 65.1% under setting [2] and 79.3% under setting [3].
In the same order, the values of `CC(C)OC(Cc1cccc(C#C[C@]2(O)CC[C@@H](C(C)(C)C)CC2)c1)C(=O)O` (stereo partly drawn) [Ex 113, trans-3-(3-2-[4-t-Butyl-1-hydroxycyclohexyl]-1-ethynylphenyl)-2-isopropoxypropanoic acid] are 39.5%, 70% and 81.8%.
The corresponding values for `C/C(=N\OCc1ccc(C(F)(F)F)cc1)c1cccc(CC(OC(C)C)C(=O)O)c1` (stereo not drawn) [Ex 132, 2-Isopropoxy-3-[3-([4-(trifluoromethyl)benzyl]-oxyethaneimidoyl)phenyl]propanoic acid] are 72.5%, 50.4% and 75.5%.
As to `CC(C)O[C@@H](Cc1cccc(CNC(=O)OCc2ccc(OC(F)(F)F)cc2)c1)C(=O)O` [Ex 335, 2 (S)-Isopropoxy-3-{3-[(4-trifluoromethoxybenzyloxycarbonylamino)methyl]phenyl}-propanoic acid], the inhibition in vivo at 3 mg/kg under setting [1] turned out to be 40%, the inhibition in vivo at 3 mg/kg under setting [2] came out at 57.2% and the inhibition in vivo at 3 mg/kg under setting [3] stood at 81.4%.
Take `CC(C)O[C@@H](Cc1cccc(CNC(=O)OCc2cccc(OC(F)(F)F)c2)c1)C(=O)O` [Ex 344, 3-(3-{[3-Trifluoromethoxybenzyloxycarbonylamino]methyl}phenyl)-2(S)-isopropoxypropanoic acid]: the inhibition in vivo at 3 mg/kg was found to be 58.1% under setting [1], 45.8% under setting [2] and 61.8% under setting [3].
On to `CC(C)O[C@@H](Cc1cccc(OC[C@H](O)COc2ccc(Cl)cc2)c1)C(=O)O` [Example 282, 3-(3-{2(R)-Hydroxy-3-[4-chlorophenoxy]propoxy}phenyl)-2(S)-isopropoxypropanoic acid], for which the inhibition in vivo at 3 mg/kg turned out to be 18.4% under setting [1], 17.9% under setting [2] and 59.7% under setting [3].
In the same order, the values of `CC(C)O[C@@H](Cc1cccc(OC[C@@H](F)COc2ccc(Cl)cc2Cl)c1)C(=O)O` [Example 320, 3-{3-[3-(2,4-Dichlorophenoxy)-2 (R)-fluoropropoxy]phenyl}-2(S)-isopropoxypropanoic acid] are 35.4%, 56.3% and 80.3%.
The corresponding values for `CC(C)O[C@@H](Cc1cccc(OC[C@H](F)COc2ccc(Cl)cc2C#N)c1)C(=O)O` [Example 329, 3-{3-[3-(4-Chloro-2-cyanophenoxy)-2(S)-fluoropropoxy]phenyl}-2(S)-isopropoxypropanoic acid] are 47.5%, 37.7% and 36.8%.

Source of the values: US7544835B2, “Carboxylic acid derivative and salt thereof” (Eisai R&D Management Co., Ltd., priority 2001, dated 2009).
